Assay results from paper PMC6418866 (Journal of the American Chemical Society, 2019).
Like-named read-outs stand apart in the source and are kept apart here. Each block holds one molecule with its values, some of them ahead of it.

What was measured:
[1] = target: recombinant human GAA (rGAA, Myozyme) (Homo sapiens, UniProt P10253); assay: In vitro inhibition of rGAA; conditions: IC50 ratio
[2] = target: T1, recombinant human GBA (rGBA, Cerezyme) (Homo sapiens, UniProt P04062, R534H); conditions: read-out: Apparent IC50, rGBA; 3 h preincubation; cited from earlier work
T1 sequence (P04062 40-536 R534H): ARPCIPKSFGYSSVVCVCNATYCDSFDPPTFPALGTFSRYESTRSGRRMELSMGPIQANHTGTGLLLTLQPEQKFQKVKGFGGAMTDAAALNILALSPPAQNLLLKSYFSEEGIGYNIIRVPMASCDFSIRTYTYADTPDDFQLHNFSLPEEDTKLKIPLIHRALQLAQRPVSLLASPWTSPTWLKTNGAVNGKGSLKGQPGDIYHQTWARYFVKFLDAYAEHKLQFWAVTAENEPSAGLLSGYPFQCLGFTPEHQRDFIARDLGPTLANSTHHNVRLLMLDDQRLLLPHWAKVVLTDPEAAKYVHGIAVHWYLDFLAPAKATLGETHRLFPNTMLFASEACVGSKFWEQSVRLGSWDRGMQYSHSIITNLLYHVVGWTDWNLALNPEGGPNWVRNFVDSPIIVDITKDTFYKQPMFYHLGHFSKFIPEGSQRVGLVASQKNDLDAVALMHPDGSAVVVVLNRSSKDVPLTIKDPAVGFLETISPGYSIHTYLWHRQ

[3] = system: GBA; conditions: cited from earlier work
[4] = target: T2, GBA (Danio rerio, UniProt E7EZM1); assay: In vivo GBA inactivation in zebrafish larvae, quantified by ABP labeling; conditions: 0.1–10 μM, 5 days in vivo
T2 sequence (E7EZM1 20-518): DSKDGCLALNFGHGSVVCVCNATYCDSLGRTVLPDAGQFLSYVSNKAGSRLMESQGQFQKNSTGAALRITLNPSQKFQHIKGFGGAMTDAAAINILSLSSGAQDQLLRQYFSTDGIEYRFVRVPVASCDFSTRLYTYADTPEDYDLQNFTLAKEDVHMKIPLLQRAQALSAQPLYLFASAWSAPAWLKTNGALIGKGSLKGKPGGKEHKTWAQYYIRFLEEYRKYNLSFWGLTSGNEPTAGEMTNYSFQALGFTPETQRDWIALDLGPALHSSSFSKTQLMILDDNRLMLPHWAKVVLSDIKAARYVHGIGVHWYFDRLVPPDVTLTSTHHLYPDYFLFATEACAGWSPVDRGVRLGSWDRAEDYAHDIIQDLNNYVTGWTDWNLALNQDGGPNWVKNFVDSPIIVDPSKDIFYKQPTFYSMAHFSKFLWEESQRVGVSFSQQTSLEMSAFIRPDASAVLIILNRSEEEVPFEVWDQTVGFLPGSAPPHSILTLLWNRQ

[5] = system: ER α-glucosidase GANAB; assay: In vivo GANAB labeling in zebrafish larvae, competitive ABPP; conditions: 0.1–10 μM, 5 days in vivo
[6] = system: lysosomal β-glucuronidase GUSB; assay: In vivo GUSB labeling in zebrafish larvae, competitive ABPP; conditions: 0.1–10 μM, 5 days in vivo
[7] = target: T3, GBA2 (Danio rerio, UniProt E7F5W0); assay: In vivo GBA2 inactivation in zebrafish larvae, ABP labeling; conditions: 0.1–10 μM, 5 days in vivo
T3 sequence (E7F5W0 1-851): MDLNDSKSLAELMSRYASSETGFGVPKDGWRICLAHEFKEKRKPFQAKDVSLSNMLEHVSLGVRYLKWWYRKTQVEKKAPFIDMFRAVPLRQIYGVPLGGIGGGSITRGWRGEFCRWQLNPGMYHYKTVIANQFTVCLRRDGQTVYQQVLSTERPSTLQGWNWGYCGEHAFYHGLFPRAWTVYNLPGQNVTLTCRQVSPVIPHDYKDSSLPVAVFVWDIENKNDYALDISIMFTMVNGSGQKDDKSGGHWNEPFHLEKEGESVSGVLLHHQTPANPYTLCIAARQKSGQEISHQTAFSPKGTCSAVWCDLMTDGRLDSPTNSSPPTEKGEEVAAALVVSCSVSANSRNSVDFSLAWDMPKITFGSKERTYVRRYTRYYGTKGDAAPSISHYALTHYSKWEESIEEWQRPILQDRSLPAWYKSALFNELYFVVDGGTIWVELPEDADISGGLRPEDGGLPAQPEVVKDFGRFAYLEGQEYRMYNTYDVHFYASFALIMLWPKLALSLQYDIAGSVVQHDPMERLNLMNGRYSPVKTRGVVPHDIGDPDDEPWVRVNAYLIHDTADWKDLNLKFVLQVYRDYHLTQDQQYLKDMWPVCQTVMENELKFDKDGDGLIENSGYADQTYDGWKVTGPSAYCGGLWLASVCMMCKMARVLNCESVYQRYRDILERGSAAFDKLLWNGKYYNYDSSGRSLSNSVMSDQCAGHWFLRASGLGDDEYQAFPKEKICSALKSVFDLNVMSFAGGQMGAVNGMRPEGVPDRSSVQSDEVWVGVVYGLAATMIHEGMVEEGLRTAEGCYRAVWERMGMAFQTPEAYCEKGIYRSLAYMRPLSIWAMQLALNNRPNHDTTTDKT

[8] = target: T4, GAA (Danio rerio, UniProt A0A8M1QKP5); assay: In vivo GAA inactivation in zebrafish larvae, ABP labeling; conditions: 0.1–10 μM, 5 days in vivo
T4 sequence (A0A8M1QKP5 31-918): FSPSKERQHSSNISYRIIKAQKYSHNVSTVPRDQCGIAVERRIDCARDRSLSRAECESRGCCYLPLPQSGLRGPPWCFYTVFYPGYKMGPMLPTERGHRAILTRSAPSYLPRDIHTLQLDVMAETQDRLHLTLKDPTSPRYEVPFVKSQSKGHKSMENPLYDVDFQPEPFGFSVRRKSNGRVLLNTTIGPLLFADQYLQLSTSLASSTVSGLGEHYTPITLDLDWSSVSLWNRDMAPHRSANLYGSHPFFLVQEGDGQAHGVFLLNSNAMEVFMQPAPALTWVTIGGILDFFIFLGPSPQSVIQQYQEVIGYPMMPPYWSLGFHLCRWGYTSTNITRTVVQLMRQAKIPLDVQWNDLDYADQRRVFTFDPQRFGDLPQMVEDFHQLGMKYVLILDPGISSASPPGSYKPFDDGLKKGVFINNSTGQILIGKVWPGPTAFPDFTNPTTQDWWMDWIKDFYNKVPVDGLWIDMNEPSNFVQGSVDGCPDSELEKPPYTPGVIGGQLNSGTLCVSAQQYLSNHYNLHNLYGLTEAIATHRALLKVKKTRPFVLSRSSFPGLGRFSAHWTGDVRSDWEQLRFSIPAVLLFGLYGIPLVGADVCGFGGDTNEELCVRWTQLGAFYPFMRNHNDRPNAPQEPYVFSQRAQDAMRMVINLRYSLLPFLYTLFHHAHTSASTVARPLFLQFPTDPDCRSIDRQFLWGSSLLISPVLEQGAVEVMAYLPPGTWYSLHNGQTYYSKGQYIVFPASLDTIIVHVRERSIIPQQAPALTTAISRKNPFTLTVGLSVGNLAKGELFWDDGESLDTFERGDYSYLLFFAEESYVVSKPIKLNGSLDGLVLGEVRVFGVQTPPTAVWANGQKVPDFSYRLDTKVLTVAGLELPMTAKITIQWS

[9] = target: T1, recombinant human GBA (rGBA, Cerezyme); assay: In vitro inhibition of rGBA, 4-MU fluorogenic substrate assay; conditions: Apparent IC50, in vitro rGBA, 3 h preincubation, 2 nM enzyme
[10] = system: LPH; assay: In vivo LPH labeling in zebrafish larvae, competitive ABPP; conditions: 0.1–10 μM, 5 days in vivo
[11] = system: glucosylsphingosine (GlcSph); assay: Glucosylsphingosine levels in treated zebrafish embryos; assay type: in vivo, Danio rerio; conditions: 0.1–10 μM inhibitor, zebrafish embryos treated 5 days

SMILES: O[C@H]1[C@H](O)[C@@H](O)[C@@H]2O[C@@H]2[C@@H]1O (racemic) [CBE 1, conduritol B epoxide]
Ratio (in vitro) GAA/GBA [1]: 444
IC50 [2]: 4280 nM

SMILES: OC[C@@H]1[C@@H](O)[C@H](O)[C@@H](O)[C@@H]2O[C@H]12 [CP 2, cyclophellitol]
GBA inhibition potency (in words) [3]: high nanomolar to micromolar

ABP labeling of GBA with ABP 8 and ABP 5 in lysates of treated zebrafish [4]: abrogated
ABP labeling of GBA2 in lysates of treated zebrafish [7]: not affected
ABP labeling of GAA in lysates of treated zebrafish [8]: not affected
IC50 [9]: 1 nM
SMILES: O[C@@H]1[C@@H](O)[C@@H]2O[C@@H]2[C@H](Cn2cc(CCCOCc3ccc(-c4ccccc4)cc3)nn2)[C@H]1O [Compound 6, Biphenyl-cyclophellitol]
ABP labeling of GANAB in lysates of treated zebrafish [5]: not affected
ABP labeling of GUSB in lysates of treated zebrafish [6]: not affected
ABP labeling of LPH in lysates of treated zebrafish [10]: not affected
Elevation in the level of glucosylsphingosine (GlcSph) [11]: 10–30 fold
